Test [1] has as its system purified α-L-fucosidase from Bacteroides thetaiotaomicron. In words: In vitro ABP labeling of purified bacterial α-L-fucosidase. It is filed as binding. As to the method:
All pre-incubations and ABP labeling-reactions occurred for 30 min at 37 °C. Total lysates (50 μg), medium (500 μg) or purified protein preparations (5 μg) were labeled with 1 μM JJB256 1 or JJB244 2, dissolved in 150 mM McIlvaine buffer, pH 4.5, incubating for 30 min at 37 °C. For ABPP, protein preparations were pre-incubated with compounds 4 (100 μM), 6 (100 μM), 7–13 (1 or 5 mM, specified in the main text) prior to the addition of 100 nM fluorescent ABPs. Influence of pH on ABP labeling involved pre-incubation at pH 3–10 prior to addition of 100 nM ABP 1. Direct labeling of retaining β-glucosidases occurred at pH 5.0 in conjunction with 100 nM ABP JJB75. Samples were then denatured with 5× Laemmli buffer (50% (v/v) 1 M Tris–HCl, pH 6.8, 50% (v/v) 100% glycerol, 10% (w/v) DTT, 10% (w/v) SDS, 0.01% (w/v) bromophenol blue), boiled for 4 min at 100 °C, and separated by gel electrophoresis on 10% (w/v) SDS-PAGE gels running continuously at 90 V.[13],[14] Wet slab-gels were scanned on fluorescence using a Typhoon Variable Mode Imager (Amersham Biosciences) using λEX 488 nm and λEM 520 nm (band pass filter 40 nm) for green fluorescent JJB256 1 and λEX 532 nm and λEM 610 nM (band pass filter 30 nm) for red fluorescent JJB244 2 and JJB75.

The target of test [2] is T1, FUCA1 (Homo sapiens, UniProt P04066).
T1 sequence (P04066 32-466): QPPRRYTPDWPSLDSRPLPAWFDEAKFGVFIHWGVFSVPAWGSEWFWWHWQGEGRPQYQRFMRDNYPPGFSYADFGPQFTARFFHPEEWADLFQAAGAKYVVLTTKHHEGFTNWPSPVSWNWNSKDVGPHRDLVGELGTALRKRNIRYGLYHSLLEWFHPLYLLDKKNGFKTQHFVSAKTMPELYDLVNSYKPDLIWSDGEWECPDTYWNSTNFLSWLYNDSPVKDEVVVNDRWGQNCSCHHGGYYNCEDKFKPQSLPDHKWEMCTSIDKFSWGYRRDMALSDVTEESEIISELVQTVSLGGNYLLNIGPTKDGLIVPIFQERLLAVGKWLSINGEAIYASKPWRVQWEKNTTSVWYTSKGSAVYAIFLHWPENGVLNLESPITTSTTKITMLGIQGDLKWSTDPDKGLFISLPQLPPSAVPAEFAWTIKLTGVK
Description: ABP pulldown from Gaucher spleen lysate and LC-MS/MS identification. To be noted: 10 μM pre-incubation followed by 10 μM ABP 3. Further details: lysates of spleens from a healthy human individual and a patient suffering from Gaucher disease; from tissue; host or cells: human spleen (normal subject and type 1 Gaucher patient). The format is binding. As for the experimental part: To further determine the specificity of the developed ABPs, we have analyzed the ABP-labeled proteins in a complex tissue homogenate. For this purpose, we incubated Gaucher spleen lysate with biotinylated ABP 3 or with DMSO only (control) or competitive ABP 3-labeling by first incubating with fluorescent ABP 1. Glycosylated proteins were then enriched via ConA, followed by affinity purification with streptavidin coated paramagnetic beads. The identity of biotinylated and ABP 3-labeled proteins was determined by on-bead digestion with trypsin, peptide analysis by LC-MS/MS and matching against the human UniProt database, using the Mascot search engine as previously reported.[14] […]
Gaucher spleen lysate (1 g) was cut with a sterile scalpel, mixed with 4 mL 25 mM potassium phosphate buffer (pH 6.5, supplemented with 0.1% (v/v) Triton X-100 and protease inhibitor cocktail (Roche)) and sonicated three times for 10 seconds at 100% strength and kept on ice. […] Lysate was then centrifuged for 10 min at 10 000 g, supernatant collected carefully, protein concentration determined and […] total protein was then incubated with either 0.1% (v/v) DMSO, ABP 1 or ABP 3, or firstly with 10 μM ABP 1 followed by 10 μM of ABP 3, each step taking 30 min at 37 °C, in a total volume of 1 mL McIlvaine buffer, pH 4.5. […]

In test [3] the target is T1, FUCA1. In words: In vitro ABP labeling of FUCA1 overexpressed in COS cells. The format is binding. The source says: Subsequently, we exposed lysates of spleens from a healthy human individual and a patient suffering from Gaucher disease to ABP 1.
The coding sequences of H. sapiens FUCA1 (NCBI reference sequence XM_005245821.1, using forward primer 5′-[…]-3′ and reverse primer 5′-[…]-3′), and of H. sapiens FUCA2 (NCBI reference sequence NM_032020.4, using forward primer 5′-[…] […]-3′ and reverse primer 5′-[…] […]-3′) were amplified via PCR and cloned into pDNOR-221 and thereafter sub-cloned in pcDNA™-DEST40 vector using the Gateway system (Invitrogen). Correctness of all constructs was verified by sequencing. Confluent COS-7 cells were transfected with pcDNA3.1 empty vector (Mock) or the vector with described insert in conjunction with FuGENE (Roche).
All pre-incubations and ABP labeling-reactions occurred for 30 min at 37 °C. Total lysates (50 μg), medium (500 μg) or purified protein preparations (5 μg) were labeled with 1 μM JJB256 1 or JJB244 2, dissolved in 150 mM McIlvaine buffer, pH 4.5, incubating for 30 min at 37 °C. […] Wet slab-gels were scanned on fluorescence using a Typhoon Variable Mode Imager (Amersham Biosciences) using λEX 488 nm and λEM 520 nm (band pass filter 40 nm) for green fluorescent JJB256 1 and λEX 532 nm and λEM 610 nM (band pass filter 30 nm) for red fluorescent JJB244 2 and JJB75.

The target of test [4] is T2, recombinant human FUCA1 (human lysosomal α-L-fucosidase) (Homo sapiens, UniProt P04066).
T2 construct: expressed in transfected cells; host or cells: COS-7
T2 sequence (P04066 32-466): T1 sequence (P04066 32-466)
In words: In vitro inhibition of FUCA1 activity, 4-methylumbelliferyl-α-L-fucopyranoside substrate, lysates of COS-7 cells over-expressing enzyme. The format is biochemical. As to the method: Having the cyclophellitol aziridine inhibitors and probes in hand, we determined their inhibitory potency towards the human lysosomal α-L-fucosidase, FUCA1.
The enzymatic activity of α-L-fucosidase was assayed at 37 °C by incubating with 1.5 mM 4-methylumbelliferyl-α-L-fucopyranoside as substrate in 150 mM McIlvaine buffer, pH 4.5, supplemented with 0.1% (w/v) BSA. […] The reaction was quenched by adding excess NaOH–glycine (pH 10.6), after which fluorescence was measured with a fluorimeter LS55 (Perkin Elmer) using λEX 366 nm and λEM 445 nm.

Test [5] deals with T3, FUCA1 (recombinant human GH29 α-L-fucosidase per table title) (Homo sapiens, UniProt P04066).
T3 construct: endogenous in cells; host or cells: fibroblasts
T3 sequence (P04066 32-466): T1 sequence (P04066 32-466)
Description: In situ inhibition of FUCA1 in living fibroblasts. The format is cell-based.

A word on the IC50: it is the point on the concentration scale where inhibition reaches its midpoint.

In the case of `CC1=CC(C)=[N+]2C1=C(CCCCc1cn(CCCCCCCC(=O)N3[C@@H]4[C@@H](C)[C@@H](O)[C@@H](O)[C@H](O)[C@@H]43)nn1)c1c(C)cc(C)n1[B-]2(F)F` [compound 1], the labeling of enzyme entry was “efficiently labels” in test [1] and “labeled” in test [3]. Besides, the “blocking of ABP 3 binding by pre-incubation” value in test [2] is recorded as “completely blocked”. Also, the results for the half-maximal inhibitory concentration (IC50) in test [4] and in test [5] were 6.9 ± 0.8 nM and 28.9 ± 4.4 nM, respectively.

The record behind these values is PMC5654414, “In vitro and in vivo comparative and competitive activity-based protein profiling of GH29 α-L-fucosidases” (Chemical Science, 2015).
